Laboratory results from PubChem BioAssay AID228 (DTP/NCI, 2004).
Values joined by “and” are separate entries in the source; they are usually repeats but may differ in a detail not shown here. Identical values can stand only once. Records with an inconclusive call do not appear.

Test system: BDF1 mice, Friend leukemia sc, tumor weight T/C
Experiment: NCI In Vivo Anticancer Drug Screen. Data for tumor model Friend Virus Leukemia (Solid) (subcutaneous) in B6D2F1 (BDF1) mice
Details: endpoint: mean tumor weight, schedule: Q01DX011 (ip), higher = larger tumour
Procedure: The antitumor activity of compounds was measured in mice bearing transplantable tumors. Survival or tumor size were measured and the results are expressed as the measurement made in the treated group (T) divided by the measurement made in the vehicle treated control group (C). The tumor model used in this assay is Friend Virus Leukemia (Solid) (subcutaneous) in B6D2F1 (BDF1) mice

[1] = dose: 1.0 mg/kg/injection, vehicle: carboxymethylcellulose (CMC)
[2] = dose: 2.0 mg/kg/injection, vehicle: carboxymethylcellulose (CMC)
[3] = dose: 4.0 mg/kg/injection, vehicle: carboxymethylcellulose (CMC)
[4] = dose: 62.5 mg/kg/injection, vehicle: carboxymethylcellulose (CMC)
[5] = dose: 125.0 mg/kg/injection, vehicle: carboxymethylcellulose (CMC)
[6] = dose: 250.0 mg/kg/injection, vehicle: carboxymethylcellulose (CMC)
[7] = dose: 16.0 mg/kg/injection, vehicle: carboxymethylcellulose (CMC)
[8] = dose: 32.0 mg/kg/injection, vehicle: carboxymethylcellulose (CMC)
[9] = dose: 50.0 mg/kg/injection, vehicle: carboxymethylcellulose (CMC)
[10] = dose: 75.0 mg/kg/injection, vehicle: carboxymethylcellulose (CMC)
[11] = dose: 0.1 mg/kg/injection, vehicle: carboxymethylcellulose (CMC)

Nc1nc(F)nc2c1ncn2C1OC(CO)C(O)C1O (stereo not given)
T/C (dose: 0.06 mg/kg/injection, vehicle: saline): 155 % of control | T/C (dose: 0.12 mg/kg/injection, vehicle: saline): 120 % of control | T/C (dose: 0.75 mg/kg/injection, vehicle: saline): 225 % of control | T/C (dose: 1.5 mg/kg/injection, vehicle: saline): 203 % of control | T/C (dose: 3.0 mg/kg/injection, vehicle: saline): 199 % of control

O=P(N1CC1)(N1CC1)N1CC1
T/C (dose: 0.5 mg/kg/injection, vehicle: carboxymethylcellulose (CMC)): 86 % of control | T/C [1]: 83 % of control | T/C [2]: 84 % of control and 88 % of control | T/C [3]: 25 % of control and 37 % of control

CN(C)N=Nc1n[nH]nc1C(N)=O
T/C (dose: 250.0 mg/kg/injection, vehicle: saline): 75 % of control | T/C (dose: 375.0 mg/kg/injection, vehicle: saline): 40 % of control

Nc1ccc(C(=O)O)c(O)c1
T/C (dose: 37.8 mg/kg/injection, vehicle: carboxymethylcellulose (CMC)): 82 % of control | T/C (dose: 75.7 mg/kg/injection, vehicle: carboxymethylcellulose (CMC)): 101 % of control | T/C (dose: 151.5 mg/kg/injection, vehicle: carboxymethylcellulose (CMC)): 113 % of control | T/C (dose: 303.0 mg/kg/injection, vehicle: carboxymethylcellulose (CMC)): 95 % of control

C[C@H]1C(=O)O[C@@H]2CCN3CC=C(COC(=O)[C@](C)(O)[C@@]1(C)O)[C@H]23
T/C (dose: 31.0 mg/kg/injection, vehicle: carboxymethylcellulose (CMC)): 95 % of control | T/C [4]: 61 % of control | T/C [5]: 66 % of control | T/C [6]: 38 % of control

NC(=O)NO
T/C [7]: 91 % of control | T/C [8]: 50 % of control | T/C (dose: 32.0 mg/kg/injection, vehicle: saline): 108 % of control | T/C (dose: 64.0 mg/kg/injection, vehicle: carboxymethylcellulose (CMC)): 8 % of control | T/C (dose: 64.0 mg/kg/injection, vehicle: saline): 7 % of control | T/C (dose: 96.0 mg/kg/injection, vehicle: saline): 3 % of control | T/C (dose: 128.0 mg/kg/injection, vehicle: carboxymethylcellulose (CMC)): 4 % of control | T/C (dose: 128.0 mg/kg/injection, vehicle: saline): 4 % of control

CCN(CC)CCNc1ccc(C)c2sc3ccccc3c(=O)c12
T/C [1]: 184 % of control | T/C (dose: 6.0 mg/kg/injection, vehicle: carboxymethylcellulose (CMC)): 199 % of control | T/C (dose: 6.25 mg/kg/injection, vehicle: carboxymethylcellulose (CMC)): 37 % of control | T/C (dose: 8.0 mg/kg/injection, vehicle: carboxymethylcellulose (CMC)): 174 % of control | T/C (dose: 8.1 mg/kg/injection, vehicle: carboxymethylcellulose (CMC)): 199 % of control | T/C (dose: 12.5 mg/kg/injection, vehicle: carboxymethylcellulose (CMC)): 35 % of control | T/C [7]: 274 % of control | T/C (dose: 16.2 mg/kg/injection, vehicle: carboxymethylcellulose (CMC)): 179 % of control | T/C (dose: 26.0 mg/kg/injection, vehicle: carboxymethylcellulose (CMC)): 111 % of control | T/C [8]: 66 % of control | T/C (dose: 33.0 mg/kg/injection, vehicle: carboxymethylcellulose (CMC)): 69 % of control | T/C (dose: 43.0 mg/kg/injection, vehicle: carboxymethylcellulose (CMC)): 72 % of control | T/C [9]: 31 % of control and 32 % of control | T/C [10]: 3 % of control and 7 % of control

CC1CC(C)OS(=O)O1 (stereo not given)
T/C (dose: 44.0 mg/kg/injection, vehicle: saline): 70 % of control | T/C (dose: 100.0 mg/kg/injection, vehicle: saline): 71 % of control | T/C (dose: 150.0 mg/kg/injection, vehicle: saline): 85 % of control

NC(=O)n1cccn1
T/C (dose: 25.0 mg/kg/injection, vehicle: other): 107 % of control | T/C (dose: 50.0 mg/kg/injection, vehicle: other): 120 % of control | T/C (dose: 100.0 mg/kg/injection, vehicle: other): 78 % of control | T/C (dose: 150.0 mg/kg/injection, vehicle: other): 13 % of control | T/C (dose: 200.0 mg/kg/injection, vehicle: other): 28 % of control

C1CN1c1nc(N2CC2)nc(N2CC2)n1
T/C (dose: 0.05 mg/kg/injection, vehicle: carboxymethylcellulose (CMC)): 164 % of control and 233 % of control | T/C [11]: 161 % of control and 293 % of control | T/C (dose: 0.12 mg/kg/injection, vehicle: carboxymethylcellulose (CMC)): 114 % of control | T/C (dose: 0.15 mg/kg/injection, vehicle: carboxymethylcellulose (CMC)): 41 % of control | T/C (dose: 0.2 mg/kg/injection, vehicle: carboxymethylcellulose (CMC)): 169 % of control and 256 % of control | T/C (dose: 0.2 mg/kg/injection, vehicle: saline): 61 % of control and 76 % of control | T/C (dose: 0.3 mg/kg/injection, vehicle: carboxymethylcellulose (CMC)): 26 % of control | T/C (dose: 0.3 mg/kg/injection, vehicle: saline): 49 % of control | T/C (dose: 0.4 mg/kg/injection, vehicle: carboxymethylcellulose (CMC)): 68 % of control and 85 % of control | T/C (dose: 0.4 mg/kg/injection, vehicle: saline): 31 % of control and 35 % of control | T/C (dose: 0.6 mg/kg/injection, vehicle: carboxymethylcellulose (CMC)): 24 % of control

CCC[CH2][Sn]([CH2]CCC)([CH2]CCC)[O]C(=O)CC[S][Sn]([CH2]CCC)([CH2]CCC)[CH2]CCC
T/C [2]: 108 % of control | T/C [3]: 82 % of control

N#CCSc1nc(N)nc2nc[nH]c12
T/C (dose: 31.25 mg/kg/injection, vehicle: carboxymethylcellulose (CMC)): 83 % of control | T/C [4]: 40 % of control | T/C [5]: 31 % of control

Cn1c(=O)c2[nH]c(CCCc3nc4c([nH]3)c(=O)n(C)c(=O)n4C)nc2n(C)c1=O
T/C (dose: 20.0 mg/kg/injection, vehicle: carboxymethylcellulose (CMC)): 101 % of control | T/C (dose: 40.0 mg/kg/injection, vehicle: carboxymethylcellulose (CMC)): 94 % of control | T/C (dose: 80.0 mg/kg/injection, vehicle: carboxymethylcellulose (CMC)): 44 % of control

CC1(C)CC(C)(c2ccccc2)c2ccccc21 (stereo not given)
T/C [4]: 68 % of control | T/C [5]: 70 % of control | T/C [6]: 67 % of control | T/C (dose: 500.0 mg/kg/injection, vehicle: carboxymethylcellulose (CMC)): 25 % of control

OCC1OC(n2cnc3c(=S)nc[nH]c32)C(O)C1O (stereo not given)
T/C [11]: 82 % of control and 92 % of control | T/C (dose: 0.25 mg/kg/injection, vehicle: carboxymethylcellulose (CMC)): 45 % of control | T/C (dose: 10.0 mg/kg/injection, vehicle: carboxymethylcellulose (CMC)): 54 % of control | T/C (dose: 15.0 mg/kg/injection, vehicle: carboxymethylcellulose (CMC)): 1 % of control and 8 % of control | T/C (dose: 25.0 mg/kg/injection, vehicle: carboxymethylcellulose (CMC)): 17 % of control | T/C [9]: 13 % of control | T/C (dose: 62.0 mg/kg/injection, vehicle: carboxymethylcellulose (CMC)): 2 % of control | T/C (dose: 100.0 mg/kg/injection, vehicle: carboxymethylcellulose (CMC)): 8 % of control | T/C [5]: 1 % of control

O=c1[nH]c2cc(Cl)c(Cl)cc2o1
T/C (dose: 19.0 mg/kg/injection, vehicle: carboxymethylcellulose (CMC)): 90 % of control | T/C (dose: 37.5 mg/kg/injection, vehicle: carboxymethylcellulose (CMC)): 81 % of control | T/C [10]: 82 % of control | T/C (dose: 150.0 mg/kg/injection, vehicle: carboxymethylcellulose (CMC)): 77 % of control
